Data: publication PMC12856317, “A reversible feedback mechanism regulating mitochondrial heme synthesis” (The Journal of Biological Chemistry, 2025)

Columns and labels:
Test in all cases: Inhibitor competition, apoenzyme reactivation by PLP with hemin
Type in all cases: biochemical
[1] = biological target: T1, apoALAS2 Cys-mut (C70A/C555A/C558A) (Homo sapiens, UniProt P22557, C555A/C558A/C70A)
T1 construct: Site-directed mutagenesis was performed on the mature ALAS2 (residues 54–587) construct to generate truncations and cysteine mutants; His6-SUMO (N, cleaved yes); made in house; host or cells: Escherichia coli BL21-Codon Plus (DE3)-RIL
T1 sequence (P22557 54-587 C70A/C555A/C558A): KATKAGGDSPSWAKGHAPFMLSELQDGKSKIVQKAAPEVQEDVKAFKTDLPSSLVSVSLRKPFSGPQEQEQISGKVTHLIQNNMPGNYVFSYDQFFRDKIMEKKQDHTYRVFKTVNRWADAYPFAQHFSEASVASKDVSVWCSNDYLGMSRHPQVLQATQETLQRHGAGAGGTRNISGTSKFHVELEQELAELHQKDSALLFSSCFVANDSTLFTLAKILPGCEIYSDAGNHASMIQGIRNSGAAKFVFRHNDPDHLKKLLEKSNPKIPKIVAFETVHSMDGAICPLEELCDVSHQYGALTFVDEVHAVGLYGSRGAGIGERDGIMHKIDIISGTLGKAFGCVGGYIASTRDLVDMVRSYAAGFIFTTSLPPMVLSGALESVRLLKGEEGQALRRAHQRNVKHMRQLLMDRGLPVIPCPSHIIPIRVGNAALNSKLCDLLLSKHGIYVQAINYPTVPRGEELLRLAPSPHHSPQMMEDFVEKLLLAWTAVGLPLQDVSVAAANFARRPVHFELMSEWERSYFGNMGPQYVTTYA
Description: (§1) A discontinuous colorimetric activity assay adapted from Shoolingin-Jordan et al. and Bailey et al. was used to measure the enzyme activity ([48], [74]). The reaction was initiated by adding 100 nM purified enzyme to 50 mM potassium phosphate, pH 7.0, 10 mM MgCl2, 1 mM DTT, 100 mM glycine, and 300 μM succinyl-CoA (175 μl total). The reaction was incubated at 37 °C for 15 min and terminated with 100 μl of cold 10% trichloroacetic acid. The precipitated protein was removed by centrifugation for 5 min at 13,000g, and 240 μl of the supernatant was mixed with 240 μl of 1 M sodium acetate, pH 4.6. To derivatize ALA, 20 μl of acetylacetone was added to the mixture and boiled at 100 °C for 10 min. After the sample was cooled for 20 min, 100 μl aliquots were transferred into a clear 96-well plate in triplicate. An equal volume of Ehrlich’s reagent (p-Dimethylaminobenzaldehyde, DMAB) was added to each well, and the absorbance was monitored at 553 nm using a microplate reader (Thermo Fisher Scientific). The peak absorbance value was converted to molar ALA concentration using ε553 = 60,400 M^−1 cm^−1.
(§2) For inhibitor competition experiments, the apoenzymes were preincubated with hemin or PLP (0–100 μM) for 15 min at 25 °C in the dark before initiating the reaction. Next, either PLP or hemin (0–100 μM) was titrated into the reactions to measure enzyme activation after hemin inhibition or enzyme inhibition of the PLP-treated apoenzyme, respectively. For succinyl-CoA:hemin competition analyses, the WT holoenzyme was mixed with hemin (0, 25, 50, and 100 μM), followed by the addition of increasing succinyl-CoA concentrations (0, 25, 50, 100, 250, and 500 μM). All experiments were performed with a minimum of three biological replicates, each with three technical replicates. Data were fit using nonlinear regression to generate an agonist dose-response curve (EC50) or an inhibitor dose-response curve (IC50). Lineweaver-Burk analysis was performed using the resulting kinetic parameters (Vmax and KM) in GraphPad Prism 10.

[2] = biological target: T2, apoALAS2 ΔC (residues 54–547) (Homo sapiens, UniProt P22557)
T2 construct: a truncation without the C-terminal CXXC motif (ΔC, residues 54–547); His6-SUMO (N, cleaved yes); made in house; host or cells: Escherichia coli BL21-Codon Plus (DE3)-RIL
T2 sequence (P22557 54-547): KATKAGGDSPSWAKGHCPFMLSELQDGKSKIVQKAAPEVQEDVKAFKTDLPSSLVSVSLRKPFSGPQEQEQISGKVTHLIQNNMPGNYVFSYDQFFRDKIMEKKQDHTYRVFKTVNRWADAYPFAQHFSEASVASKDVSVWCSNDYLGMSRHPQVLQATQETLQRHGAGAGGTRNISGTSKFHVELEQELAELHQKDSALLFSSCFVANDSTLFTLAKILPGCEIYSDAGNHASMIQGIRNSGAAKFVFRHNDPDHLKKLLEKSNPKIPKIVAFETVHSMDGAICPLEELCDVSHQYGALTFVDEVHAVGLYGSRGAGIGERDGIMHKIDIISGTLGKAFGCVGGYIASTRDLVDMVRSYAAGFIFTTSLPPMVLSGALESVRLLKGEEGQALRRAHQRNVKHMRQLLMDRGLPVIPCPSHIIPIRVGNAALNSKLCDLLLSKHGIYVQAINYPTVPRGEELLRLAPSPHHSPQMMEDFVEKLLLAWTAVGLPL
Description: as §1, §2

[3] = biological target: T3, apoALAS2 ΔN (residues 75–587) (Homo sapiens, UniProt P22557)
T3 construct: a truncation without HRM3 (ΔN, residues 75–587); His6-SUMO (N, cleaved yes); made in house; host or cells: Escherichia coli BL21-Codon Plus (DE3)-RIL
T3 sequence (P22557 75-587): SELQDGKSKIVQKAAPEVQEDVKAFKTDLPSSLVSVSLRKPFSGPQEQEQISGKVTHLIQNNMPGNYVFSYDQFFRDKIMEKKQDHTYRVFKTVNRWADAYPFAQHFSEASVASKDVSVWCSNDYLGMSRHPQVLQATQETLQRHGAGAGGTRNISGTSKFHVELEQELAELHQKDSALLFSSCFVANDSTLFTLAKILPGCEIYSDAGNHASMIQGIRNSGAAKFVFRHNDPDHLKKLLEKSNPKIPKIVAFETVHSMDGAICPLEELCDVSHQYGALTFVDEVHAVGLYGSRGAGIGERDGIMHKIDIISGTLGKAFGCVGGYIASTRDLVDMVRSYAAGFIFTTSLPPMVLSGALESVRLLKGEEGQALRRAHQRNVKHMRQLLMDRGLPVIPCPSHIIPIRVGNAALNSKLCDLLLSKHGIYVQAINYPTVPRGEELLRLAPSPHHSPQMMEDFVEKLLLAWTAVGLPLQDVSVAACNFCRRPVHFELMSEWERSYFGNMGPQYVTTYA
Description: as §1, §2

| Molecule | EC50 ([1]; Cys-mut apoALAS2, PLP titration in the presence of 50 μM hemin) | EC50 ([2]; ΔC apoALAS2, PLP titration in the presence of 50 μM hemin) | apoenzyme activity restored ([2]; ΔC apoenzyme preincubated with 50 μM heme, excess PLP) | EC50 ([3]; ΔN apoALAS2, PLP titration in the presence of 25 μM hemin) | mode of inhibition ([1]; Cys-mut, multiple heme concentrations (Fig. S4)) | mode of inhibition ([2]; ΔC, multiple heme concentrations (Fig. S4)) | mode of inhibition ([3]; ΔN, multiple heme concentrations (Fig. S4)) |
| --- | --- | --- | --- | --- | --- | --- | --- |
| Cc1ncc(COP(=O)(O)O)c(C=O)c1O [PLP] | 10 ± 4 µM | 9 ± 1 µM | ~50% | 4 ± 2 µM |  |  |  |
| ferric chloride heme [hemin] |  |  |  |  | allosteric mixed inhibitor | allosteric mixed inhibitor | allosteric mixed inhibitor |
